How the values were obtained:
4T1 tumors = assay: 4T1 primary tumor growth in mice; format: in vivo, mouse; details: 10 mg/kg i.p. daily Day 7-25, final tumor size Day 28
Procedure: Female BALB/c mice (6-8 week old) were purchased from the Jackson Laboratory (Bar Harbor, Me.). All mice were housed at the Weill Medical College of Cornell University Animal Facilities in accordance with the Principles of Animal Care (NIH publication no. 85-23, revised 1985). 4T1 tumor cells (1×10^5) were injected subcutaneously into the abdominal mammary gland area of mice in 0.1 ml of a single-cell suspension in phosphate buffered saline (PBS) on Day 0. The dosage of tumor implantation was empirically determined to give rise to tumor of ˜10 mm in diameter in untreated wild type mice in 21-23 days. On Day 7, when the tumors averaged in size ˜4-5 mm in diameter, migrastatin analogs or control PBS saline were given every day by intraperitoneal injection at 10 mg/kg or 20 mg/kg per mouse until Day 25. On Day 28, the mice were sacrificed. […] Primary tumors were measured using electronic calipers on the day when the mice were sacrificed. […] Numbers of metastatic 4T1 cells in lung were determined by the clonogenic assay.^63 In brief, lungs were removed from each mouse on Day 28, finely minced and digested in 5 ml of enzyme cocktail containing 1×PBS and 1 mg/ml collagenase type IV for 2 hours at 37° C. on a platform rocker. […]
Effect of migrastatin analogs on 4T1 tumor cell growth (See, FIG. 5). […] On Day 28, primary tumors were measured using electronic calipers. […]

[1] = test system: 4T1 tumor lung metastasis; assay: 4T1 tumor lung metastasis in syngeneic mice; format: in vivo, mouse; details: mean and standard deviation
Procedure: Female BALB/c mice (6-8 week old) were purchased from the Jackson Laboratory (Bar Harbor, Me.). All mice were housed at the Weill Medical College of Cornell University Animal Facilities in accordance with the Principles of Animal Care (NIH publication no. 85-23, revised 1985). 4T1 tumor cells (1×10^5) were injected subcutaneously into the abdominal mammary gland area of mice in 0.1 ml of a single-cell suspension in phosphate buffered saline (PBS) on Day 0. The dosage of tumor implantation was empirically determined to give rise to tumor of ˜10 mm in diameter in untreated wild type mice in 21-23 days. On Day 7, when the tumors averaged in size ˜4-5 mm in diameter, migrastatin analogs or control PBS saline were given every day by intraperitoneal injection at 10 mg/kg or 20 mg/kg per mouse until Day 25. On Day 28, the mice were sacrificed. This regiment of migrastatin analogs was well tolerated with no signs of overt toxicity. Every group included five mice. Primary tumors were measured using electronic calipers on the day when the mice were sacrificed. Tumor size was the square root of the product of two perpendicular diameters. Numbers of metastatic 4T1 cells in lung were determined by the clonogenic assay.^63 In brief, lungs were removed from each mouse on Day 28, finely minced and digested in 5 ml of enzyme cocktail containing 1×PBS and 1 mg/ml collagenase type IV for 2 hours at 37° C. on a platform rocker. After incubation, samples were filtered through 70 uM nylon cell strainers and washed twice with PBS. Resulting cells were suspended and plated serially diluted in 10 cm tissue culture dishes in medium RPMI1640 containing 60 uM thioguanine for clonogenic growth. 6-Thioguanine-resistant tumor cells formed foci after 14 days, at which time they were fixed with methanol and stained with 0.03% methylene blue for counting.
Treatment 4T1 tumor lung metastasis in syngeneic mice with migrastatin analogs (See, FIG. 4). 4T1 tumor cells (10^5) were injected s.c. in the abdominal mammary gland with 0.1 ml of a single-cell suspension. Macroketone or macrolactam at 10 mg/kg or 20 mg/kg was given i.p. on Day 7 when the tumor size was about 5 mm in diameter, and every day until Day 25. On Day 28, the mice were sacrificed. Each group comprised five mice. Lung metastasis was measured by the 6-thiogunine clonogenic assay. The mean and standard deviation are presented. In the control group (daily PBS injection), there were 61300±18900 colonies.

[2] = test system: 4T1 mouse breast tumor cells; assay: Wound-healing assay with 4T1 cells; format: cell-based; details: with serum, 200 μM, overnight
Source text: In the wound healing assay, standard scratches (i.e., wounds) were made through a confluent 4T1 cell layer. In the absence of serum, cells would not migrate across the empty space created by application of the scratch. Upon addition of serum containing migration-enabling factors, migration of 4T1 cells across the scratch was induced. Exposure to these cells to inventive compounds allowed the evaluation of the cell migration inhibitory activity of these compounds.
Wound-Healing Assay (See FIG. 6). 4T1 mouse breast tumor cells in RPMI-1640 medium containing 10% fetal bovine serum (FBS) were seeded into wells of 24-multiwell plates (Becton-Dickinson). After cells grew to confluence, wounds were made with sterile pipette tips. Cells were washed with Phosphate Buffered Saline (PBS) and refreshed with growth medium containing different concentrations of chemical compounds. After overnight incubation at 37° C., cells were fixed and photographed.

4T1 tumor cells = assay: Cell proliferation assay (MTT); details: up to 20 μM, 48 h
Procedure: Cell Proliferation Assay: 4×10^4 of 4T1 tumor cells in RPMI-1640 medium containing 10% FBS were seeded into wells of 96-multiwell plates (Becton-Dickinson) in the presence or absence of chemical compounds and then incubated at 37° C. for 48 h. An MTT kit (Cell Proliferation Kit I, Roche) (a colorimetric assay) was used to quantify cell proliferation and viability. The number of living cells, thus the total metabolic activity, directly correlates to the amount of purple formazan crystals formed (monitored by the absorbance).

[3] = Metabolic stability in mouse plasma; format: in vitro ADME; details: mouse plasma/PBS, 37° C.; for stability (t1/2, mouse plasma), in words: 60 min of incubation, stable = intensity of HPLC signal unchanged
Procedure: Mouse Plasma Stability Studies (Table 5): HPLC conditions: The sample is injected and separated using an Inertsil ODS3 6u 3×150 mm column with a mobile phase of MeCN and water (50% for migrastatin) at a flow of 0.4 mL/min, monitored at 220 nm at 0.02 AUFS (the retention time for migrastatin is ca. 4 min, the identity of this peak was confirmed by mass spectral analysis). Incubation and sample preparation conditions: A solution (ca. 30 mM) of chemical compound (Table 5) in DMSO is prepared. 2 μL of the solution is added to a mixture containing 200 μL of mouse plasma and 800 μL of PBS. The resulting solution is put into a water bath at 37° C., and 100 μL of sample is withdrawn at 10, 20, 30, 45, and 60 min. The precipitate is removed by centrifugation and 20 μL of the supernatant is injected onto the HPLC.

HUVEC = assay: Tube formation assay; format: cell-based, human; details: minimal concentration causing definite disturbance of tube network; 16-18 h; tested 200, 100, 50, 25, 10 μM
Procedure: A protocol was designed based on the instructions from the provider (BD Bioscience, San Jose, Calif.). Briefly, wells of a 48 well culture dish were covert with 150 μL matrigel and the matrigel was gelatinized for 30 min at 37° C. A 80-90% confluent HUVEC (BD Bioscience, San Jose, Calif.) culture was trypsin treated, the detached cells were collected by centrifugation and resuspended in EGM-2 media (BD Bioscience, San Jose, Calif.). Cell concentration was adjusted to 100.000 cells/mL. 400 μL of the cell suspension were filled in the matrigel coated wells, and a solution of the inhibitor was added to the intended final concentration. The plates were incubated at 37° C. with 5% CO2 for 16-18 h. Media was removed, and the matrigel surface was washed twice with 500 μL PBS before cells were labeled with 250 μL […] Calcein AM (Pierce, Rockford, Ill.) in PBS for 30 min at 37° C. After two additional washing steps (500 μL PBS) cells were visualized under an inverted microscope. Fluorescence was excited at 488 nm and recorded at 538 nm. The minimum effect concentration was defined as the minimal inhibitor concentration that caused a definite disturbance of the complexity of the formed tube network.

KYSE-520 cells = assay: Wound healing (scratch) assay; format: cell-based; details: 28 to 30 h, tested 200, 100, 50, 25, 10 μM
Procedure: The wound healing assay was performed based on the method described by Nakae et al. (Nakae et al., J. Antibiotics (2000), 53, 1130-1136). Briefly, adherent cells were grown in a suitable media to confluence (e.g. KYSE-520 cells in RPMI-1640 with 10% FBS). Cells were starved for 24 h in serum free media. A scratch (ca. 0.5 mm) was applied and the cell layer was washed twice with PBS after removal of the media. Fresh, serum free media with the test compound at the desired concentration was added and the cells were incubated for 28 to 30 h at 37° C., 5% CO2. The scratch size was compared to that observed for cells exposed to 100 μM Migrastatin. Test compounds associated with a scratch size equal to or larger than that observed for cells exposed to 100 μM Migrastatin were deemed to have cell migration inhibitory activity at least equal to Migrastatin.

cell migration = assay: Chamber cell migration assay (preliminary); format: cell-based; details: 36 h, tested 200, 100, 50, 25, 10 μM
Procedure: Cells were grown in an appropriate media to 70 to 80% confluence and incubated in serum and growth factor free media for 24 h. Cells were detached by trypsin treatment, collected by centrifugation and resuspended in serum free media to a final concentration of 150,000 cells/mL. 400 μL of the cell suspension were loaded into a fibronectin coated insert for 24 well multidishes. 750 μL fully supplemented media were applied to the compartment under the insert. To both chambers the inhibitor was added at the intended concentration and the plates were incubated for 36 h at 37° C., 5% CO2. […] The resulting CyQuant assay solution was transferred to the cavities of a 96 well microtiter plate and the fluorescence signal was recorded in an appropriate reader. The CyQuant dye forms a highly fluorescent complex with DNA, thus the fluorescence signal is proportional to the number of cells that migrated through the membrane in the presence of the test compound (N^inh). […] The positive control fluorescent reading correlates with the number of cells that migrate through the membrane in the absence of inhibitor (N^+). […] The negative control fluorescent reading correlates with the number of cells that migrate through the membrane through non-directed processes (N^−). The anti-migratory effect of a test compound is determined by the ratio (N^inh−N^−)/(N^+−N^−).

SMILES	effect on tumor growth in mice (4T1 tumors)	lung metastasis, colonies (6-thioguanine clonogenic assay) ([1]; 10 mg/kg i.p. daily Day 7-25, Day 28) [colonies]	lung metastasis, colonies (6-thioguanine clonogenic assay) ([1]; 20 mg/kg i.p. daily Day 7-25, Day 28) [colonies]	inhibition of 4T1 cell migration across the scratch [2]	cytotoxic or anti-proliferative effects on 4T1 cells (4T1 tumor cells)	stability (t1/2, mouse plasma) [3] [min]	stability (t1/2, mouse plasma), in words [3]	Minimum effect concentration (HUVEC) [µM]	Minimum effect concentration (KYSE-520 cells) [µM]	IC50 (cell migration) [µM]	stability (t1/2, mouse plasma), in words ([3]; listed as migrastatin)
COC1C=CCCCCC(=O)CCC(C)=CC(C)C1O (stereo not shown) [macroketone (60), Macroketone]	minor effect on tumor growth	3875±2525	650±575								
COC1C=CCCCCC(=O)OCC(C)=CC(C)C1O (stereo not shown) [macrolactone (48), Macrolactone]				almost completely inhibited cell migration across the scratch	did not have any cytotoxic or anti-proliferative effects up to 20 μM	<5	hydrolyzed rapidly				
CO[C@H]1/C=C/CC/C=C/C(=O)O[C@H]([C@H](C)C(=O)CCCC2CC(=O)NC(=O)C2)/C(C)=C\[C@@H](C)[C@@H]1O [migrastatin (1), Migrastatin]				not as great			stable^1	100	100	200	completely inert toward lactone opening

From US8324284B2, “Migrastatin analogs and uses thereof” (Sloan-Kettering Institute for Cancer Research, priority 2003, dated 2012)
